Like-named read-outs stand apart in the source and are kept apart here.
Legend:
Assay in all cases: Radiometric protein kinase assay (33PanQinase Activity Assay)
Assay type in all cases: biochemical
[1] = molecular target: T1, ERBB2 (Homo sapiens, UniProt P04626)
T1 construct: made in house; host or cells: Sf9 insect cells, baculovirus
Description: (§1) AKTI1, ARK5, Aurora-A, Aurora-B, B-RAF-VE, CDK2/CycA, CDK4/CycD1, CK2-alpha1 (catalytic subunit of CK2), EGF-R, EPHB4, ERBB2, FAK, IGF1-R, SRC, VEGF-R2, VEGF-R3, FLT3, INS-R, MET, PDGFR-beta, PLK1, SAK, TIE2, COT.
(§2) All the protein kinases were expressed in Sf9 insect cells as human recombinant GST fusion proteins or His-tagged proteins by the baculovirus expression system. Kinases were purified by affinity chromatography either by GSH-agarose (Sigma) or Ni—NTH-agarose (Qiagen). The purity of the kinases was tested by SDS-PAGE/silver staining, and the identity of the kinases was verified by Western blot analysis with specific antibodies or mass spectroscopy.
(§3) A radiometric protein kinase assay (33PanQinase® Activity Assay) was used to measure the kinase activity for the 24 protein kinases. The kinase assays were carried out in 96-well FlashPlates™ from Perkin Elmer/NEN (Boston, Mass., USA) in a reaction volume of 50 μl. The reaction mixture was pipetted in 4 steps in the following sequence: • 20 μl of assay buffer • 5 μl of ATP solution (in H2O) • 5 μl of test compound (in 10% DMSO) • 10 μl of substrate/10 μl of enzyme solution (premixed)
(§4) The assays for all the enzymes contained 60 mM HEPES-NaOH, pH 7.5, 3 mM MgCl2, 3 mM MnCl2, 3 μM Na orthovanadate, 1.2 mM DTT, 50 μg/ml PEG20000, 1 μM [γ-^33P]-ATP (about 5×10^5 cpm per well).
(§5) The reaction mixture was incubated at 30° C. for 80 minutes. The reaction was stopped with 50 μl of 2% (v/v) H3PO4. The plates were aspirated and washed twice with 200 μl of 0.9% (w/v) NaCl. The incorporation of ^33Pi was determined using a microtiter plates scintillation counter (Microbeta Trilux, Wallac).

[2] = molecular target: T2, SRC (Homo sapiens, UniProt P12931)
T2 construct: made in house; host or cells: Sf9 insect cells, baculovirus
Description: as §1, §2, §3, §4, §5

[3] = molecular target: T3, SAK (Homo sapiens, UniProt O00444)
T3 construct: made in house; host or cells: Sf9 insect cells, baculovirus
T3 sequence (O00444 1-970): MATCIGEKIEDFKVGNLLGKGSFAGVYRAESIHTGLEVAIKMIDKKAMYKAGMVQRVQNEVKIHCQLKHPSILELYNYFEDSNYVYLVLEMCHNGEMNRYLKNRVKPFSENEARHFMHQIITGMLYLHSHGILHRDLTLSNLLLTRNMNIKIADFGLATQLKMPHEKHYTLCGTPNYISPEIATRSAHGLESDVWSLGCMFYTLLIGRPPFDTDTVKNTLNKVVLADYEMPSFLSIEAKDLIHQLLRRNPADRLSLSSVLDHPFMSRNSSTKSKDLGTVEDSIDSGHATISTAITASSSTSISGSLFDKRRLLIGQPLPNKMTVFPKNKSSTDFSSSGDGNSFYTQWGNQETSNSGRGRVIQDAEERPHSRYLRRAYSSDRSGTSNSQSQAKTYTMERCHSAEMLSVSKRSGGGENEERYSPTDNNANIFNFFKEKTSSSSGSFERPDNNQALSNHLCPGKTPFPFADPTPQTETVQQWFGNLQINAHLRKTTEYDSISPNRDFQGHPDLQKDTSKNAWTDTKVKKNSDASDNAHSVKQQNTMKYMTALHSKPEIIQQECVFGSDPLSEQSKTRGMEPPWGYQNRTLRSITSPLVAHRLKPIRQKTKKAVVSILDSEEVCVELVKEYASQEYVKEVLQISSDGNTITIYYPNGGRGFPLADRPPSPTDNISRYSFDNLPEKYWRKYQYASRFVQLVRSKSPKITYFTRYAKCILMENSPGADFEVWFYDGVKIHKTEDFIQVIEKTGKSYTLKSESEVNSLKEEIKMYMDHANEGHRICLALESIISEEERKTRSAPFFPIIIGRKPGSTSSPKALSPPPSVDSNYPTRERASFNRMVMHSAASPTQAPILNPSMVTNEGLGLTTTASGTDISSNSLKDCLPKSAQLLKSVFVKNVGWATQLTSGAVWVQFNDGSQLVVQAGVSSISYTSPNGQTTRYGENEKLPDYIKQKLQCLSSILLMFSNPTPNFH
Description: as §1, §2, §3, §4, §5

[4] = molecular target: T4, EPHB4 (Homo sapiens, UniProt P54760)
T4 construct: made in house; host or cells: Sf9 insect cells, baculovirus
T4 sequence (P54760 16-987): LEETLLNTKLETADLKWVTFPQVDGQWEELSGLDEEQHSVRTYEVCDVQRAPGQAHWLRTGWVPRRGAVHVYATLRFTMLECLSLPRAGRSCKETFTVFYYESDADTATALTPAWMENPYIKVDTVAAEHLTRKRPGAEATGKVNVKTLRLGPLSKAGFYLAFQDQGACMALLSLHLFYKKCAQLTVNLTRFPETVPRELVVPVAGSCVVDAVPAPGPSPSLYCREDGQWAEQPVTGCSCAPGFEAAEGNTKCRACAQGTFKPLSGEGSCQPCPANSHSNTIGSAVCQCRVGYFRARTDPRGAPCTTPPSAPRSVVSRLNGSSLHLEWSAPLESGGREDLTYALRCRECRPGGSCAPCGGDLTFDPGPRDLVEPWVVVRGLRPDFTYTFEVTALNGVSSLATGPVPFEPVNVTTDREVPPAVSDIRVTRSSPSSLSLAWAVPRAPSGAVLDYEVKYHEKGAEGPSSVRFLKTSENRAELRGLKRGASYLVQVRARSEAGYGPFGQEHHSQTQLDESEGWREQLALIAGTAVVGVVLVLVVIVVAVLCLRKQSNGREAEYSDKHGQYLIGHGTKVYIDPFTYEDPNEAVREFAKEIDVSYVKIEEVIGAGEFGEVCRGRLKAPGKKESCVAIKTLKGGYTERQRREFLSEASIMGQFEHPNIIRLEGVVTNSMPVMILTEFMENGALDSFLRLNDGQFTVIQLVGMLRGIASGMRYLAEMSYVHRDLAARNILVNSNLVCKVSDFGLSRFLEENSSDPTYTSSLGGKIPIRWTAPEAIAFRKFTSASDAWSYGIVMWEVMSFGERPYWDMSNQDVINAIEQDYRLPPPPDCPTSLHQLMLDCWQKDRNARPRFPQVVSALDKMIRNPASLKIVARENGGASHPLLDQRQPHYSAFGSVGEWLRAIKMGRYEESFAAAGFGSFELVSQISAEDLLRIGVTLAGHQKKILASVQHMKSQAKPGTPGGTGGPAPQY
Description: as §1, §2, §3, §4, §5

[5] = 1 μM ATP, read-out: IC50 values [μM] ERBB2
[6] = 1 μM ATP, read-out: IC50 values [μM] SRC
[7] = 1 μM ATP, read-out: IC50 values [μM] SAK
[8] = 1 μM ATP, read-out: IC50 values [μM] EPHB4

T2 sequence (P12931 whole entry): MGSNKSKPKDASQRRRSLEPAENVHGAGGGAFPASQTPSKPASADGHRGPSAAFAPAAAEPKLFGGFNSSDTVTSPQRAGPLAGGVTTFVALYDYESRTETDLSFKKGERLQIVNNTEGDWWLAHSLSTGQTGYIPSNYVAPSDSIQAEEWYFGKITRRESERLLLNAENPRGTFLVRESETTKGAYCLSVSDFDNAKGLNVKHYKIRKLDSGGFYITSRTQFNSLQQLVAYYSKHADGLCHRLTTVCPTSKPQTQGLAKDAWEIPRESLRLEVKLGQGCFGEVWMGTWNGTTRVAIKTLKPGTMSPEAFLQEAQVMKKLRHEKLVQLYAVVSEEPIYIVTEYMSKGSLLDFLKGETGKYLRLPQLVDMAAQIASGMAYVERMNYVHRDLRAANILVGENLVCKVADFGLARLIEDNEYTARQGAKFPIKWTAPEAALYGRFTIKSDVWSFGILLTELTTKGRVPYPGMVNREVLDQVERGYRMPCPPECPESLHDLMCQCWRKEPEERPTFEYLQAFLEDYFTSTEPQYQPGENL
T1 sequence (P04626 23-1255): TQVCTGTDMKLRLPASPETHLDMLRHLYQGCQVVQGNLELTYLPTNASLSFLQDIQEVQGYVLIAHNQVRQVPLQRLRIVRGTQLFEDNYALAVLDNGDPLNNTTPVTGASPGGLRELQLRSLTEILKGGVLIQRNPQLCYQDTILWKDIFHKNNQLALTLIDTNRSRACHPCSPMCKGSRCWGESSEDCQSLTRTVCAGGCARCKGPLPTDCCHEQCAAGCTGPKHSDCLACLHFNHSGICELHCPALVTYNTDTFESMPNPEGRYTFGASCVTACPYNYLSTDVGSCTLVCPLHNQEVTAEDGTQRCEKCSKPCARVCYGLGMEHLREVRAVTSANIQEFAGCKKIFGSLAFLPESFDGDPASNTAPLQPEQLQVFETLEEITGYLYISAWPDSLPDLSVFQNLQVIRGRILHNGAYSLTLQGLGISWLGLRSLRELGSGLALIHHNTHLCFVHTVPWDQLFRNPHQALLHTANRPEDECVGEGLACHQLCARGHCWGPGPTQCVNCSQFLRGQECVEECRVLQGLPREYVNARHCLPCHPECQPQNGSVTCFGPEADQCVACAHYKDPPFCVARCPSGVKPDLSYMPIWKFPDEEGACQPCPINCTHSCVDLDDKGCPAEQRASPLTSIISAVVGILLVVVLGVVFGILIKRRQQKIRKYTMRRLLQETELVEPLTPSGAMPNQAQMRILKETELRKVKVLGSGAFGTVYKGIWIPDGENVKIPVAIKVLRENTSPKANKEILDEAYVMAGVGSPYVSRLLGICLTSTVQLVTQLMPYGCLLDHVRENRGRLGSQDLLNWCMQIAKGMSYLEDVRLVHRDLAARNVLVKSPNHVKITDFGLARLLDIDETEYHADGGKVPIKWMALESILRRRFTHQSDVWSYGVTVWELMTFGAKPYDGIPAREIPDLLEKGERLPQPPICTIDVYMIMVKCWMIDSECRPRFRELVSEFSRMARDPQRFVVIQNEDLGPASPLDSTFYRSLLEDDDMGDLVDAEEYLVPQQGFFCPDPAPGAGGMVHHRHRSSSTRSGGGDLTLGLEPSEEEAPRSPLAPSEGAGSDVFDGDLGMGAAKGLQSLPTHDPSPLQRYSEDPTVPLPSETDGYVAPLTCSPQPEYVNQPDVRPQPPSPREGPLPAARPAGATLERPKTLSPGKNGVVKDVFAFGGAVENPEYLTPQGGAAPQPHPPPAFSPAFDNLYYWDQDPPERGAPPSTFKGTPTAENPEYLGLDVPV

For `CC(C)n1c2c(c3c1-c1ccccc1C3=O)C(=O)CCC2` [Compound 4b, 5-Isopropyl-5,6,7,8-tetrahydroindeno[1,2-b]indole-9,10-dione], the IC50 [1] was greater than 10 µM, the IC50 [2] was greater than 10 µM and the IC50 [3] was greater than 10 µM. For the same compound, the IC50 [4] was greater than 10 µM.

`CC(C)n1c2c(=O)ccc(=O)c2c2c(=O)c3ccccc3c21` [Compound 6b, 5-Isopropyl-5H-indeno[1,2-b]indole-6,9,10-trione] gave an IC50 [1, 5] greater than 10 µM, an IC50 [2, 6] of 1.6 µM and an IC50 [3, 7] of 1.7 µM. For the same compound, the IC50 [4, 8] was greater than 10 µM.

`O=c1ccc(=O)c2c1c1c(=O)c3ccccc3c1n2Cc1ccccc1` [Compound 6c, 5-Benzyl 5,6,9,10-tetrahydroindeno[1,2-b]indole-6,9,10-trione] showed an IC50 [1, 5] of 7.6 µM, an IC50 [2, 6] of 0.8 µM and an IC50 [3, 7] of 3.9 µM. The IC50 [4, 8] was 9.3 µM.

— patent US8133913B2, “Substituted indeno [1,2-b]indole derivatives as novel inhibitors of protein kinase CK2 and their use as tumor therapeutic agents, cytostatics and diagnostic aids” (Heinrich-Heine Universitat Dusseldof, priority 2006, dated 2012)
